From patent US5629309A, “2-substituted indane-2-mercaptoacetylamide disulfide derivatives useful as inhibitors of enkephalinase and ACE” (Merrell Pharmaceuticals Inc., priority 1995, dated 1997)

Molecular target: T1, ACE, rat kidney preparations (Rattus norvegicus, UniProt P47820)
T1 construct: either compound- or vehicle-dosed rat kidney preparations; from tissue; host or cells: kidney of male Sprague-Dawley rats
T1 sequence (P47820 36-1313): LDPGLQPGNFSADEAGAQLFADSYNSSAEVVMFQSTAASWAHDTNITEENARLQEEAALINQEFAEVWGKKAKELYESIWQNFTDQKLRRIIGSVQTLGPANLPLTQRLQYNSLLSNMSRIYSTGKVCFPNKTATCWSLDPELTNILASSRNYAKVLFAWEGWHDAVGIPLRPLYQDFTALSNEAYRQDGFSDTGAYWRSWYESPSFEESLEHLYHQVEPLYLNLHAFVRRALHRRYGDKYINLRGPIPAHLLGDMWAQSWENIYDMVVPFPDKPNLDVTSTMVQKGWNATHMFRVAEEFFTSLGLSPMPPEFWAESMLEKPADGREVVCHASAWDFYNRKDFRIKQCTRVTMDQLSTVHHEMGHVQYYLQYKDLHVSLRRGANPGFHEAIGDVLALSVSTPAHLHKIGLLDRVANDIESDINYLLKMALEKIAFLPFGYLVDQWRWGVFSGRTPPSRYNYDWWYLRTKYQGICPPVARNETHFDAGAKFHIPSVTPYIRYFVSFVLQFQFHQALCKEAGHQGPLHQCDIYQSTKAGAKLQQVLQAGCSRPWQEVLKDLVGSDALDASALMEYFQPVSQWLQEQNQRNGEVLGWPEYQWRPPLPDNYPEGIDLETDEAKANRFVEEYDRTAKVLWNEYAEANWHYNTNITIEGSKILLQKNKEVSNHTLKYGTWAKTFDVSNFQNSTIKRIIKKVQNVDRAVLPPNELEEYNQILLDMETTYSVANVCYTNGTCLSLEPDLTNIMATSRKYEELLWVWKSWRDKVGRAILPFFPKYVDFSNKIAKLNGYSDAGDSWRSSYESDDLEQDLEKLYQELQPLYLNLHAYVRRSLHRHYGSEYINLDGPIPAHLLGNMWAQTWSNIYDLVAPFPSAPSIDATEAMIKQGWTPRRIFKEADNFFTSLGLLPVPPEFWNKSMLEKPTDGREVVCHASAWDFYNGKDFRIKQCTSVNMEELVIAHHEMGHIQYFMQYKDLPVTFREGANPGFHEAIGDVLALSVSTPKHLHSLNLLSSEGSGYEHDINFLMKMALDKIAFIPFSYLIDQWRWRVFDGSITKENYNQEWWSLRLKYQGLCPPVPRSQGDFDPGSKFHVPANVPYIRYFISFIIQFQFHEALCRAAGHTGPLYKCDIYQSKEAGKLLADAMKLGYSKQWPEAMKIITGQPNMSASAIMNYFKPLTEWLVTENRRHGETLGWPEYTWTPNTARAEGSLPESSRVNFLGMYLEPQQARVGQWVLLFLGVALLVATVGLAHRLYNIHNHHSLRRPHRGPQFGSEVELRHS
Assay: Radiometric ACE assay with tritiated hippuryl-glycyl-glycine, rat kidney preparations
Type: biochemical
Conditions: 1 μM enalaprilat; compound- or vehicle-dosed rat kidney preparations

C[C@H](N[C@@H](CCc1ccccc1)C(=O)O)C(=O)N1CCC[C@H]1C(=O)O [enalaprilat]
inhibition of radioactive product formation: Complete inhibition
